From patent US20190152962A1, “CYCLOPROPYL DERIVATIVES AS ROR-GAMMA MODULATORS” (CADILA HEALTHCARE LIMITED, priority 2016, published 2019)

How the values were obtained:
full length human RORγt = target: T1, full length human RORγt (Homo sapiens, UniProt P51449); test: 5×RORE based luciferase assay; assay type: cell-based; conditions: COS-7 cells transfected with 5×RORE-Luc and hRORγt, 18-20 h treatment
T1 construct: full length human RORγt together in COS-7 cells; expressed in transfected cells; host or cells: COS-7
T1 sequence (P51449 1-497 isoform P51449-2): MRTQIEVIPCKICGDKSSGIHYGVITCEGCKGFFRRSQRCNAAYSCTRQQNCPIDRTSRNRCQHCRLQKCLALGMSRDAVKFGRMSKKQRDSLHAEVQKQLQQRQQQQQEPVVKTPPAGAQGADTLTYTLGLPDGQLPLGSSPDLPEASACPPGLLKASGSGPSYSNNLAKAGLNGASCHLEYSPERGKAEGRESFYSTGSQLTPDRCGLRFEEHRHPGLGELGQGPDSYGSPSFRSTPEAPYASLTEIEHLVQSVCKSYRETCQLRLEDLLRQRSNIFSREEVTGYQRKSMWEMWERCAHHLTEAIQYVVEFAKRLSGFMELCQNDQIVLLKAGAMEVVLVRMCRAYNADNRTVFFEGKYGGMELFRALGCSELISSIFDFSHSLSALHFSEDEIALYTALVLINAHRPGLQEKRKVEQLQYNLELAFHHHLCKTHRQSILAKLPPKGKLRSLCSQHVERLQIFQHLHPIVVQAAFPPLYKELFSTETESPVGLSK
Procedure, shortened: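 COS-7 cells transiently co-transfected with 5×RORE-luciferase, full-length hRORγt and β-Gal control, then treated 18-20 h at 37 °C with compound in serum-free medium, 0.2% DMSO. Luciferase normalized to β-Gal, % activity relative to 10 nM control ligand; IC50 by nonlinear regression.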

[1] = test system: secreted IL-17 in peripheral blood mononuclear cells (PBMCs); test: Human IL-17 inhibition assay; assay type: cell-based; conditions: PBMC, anti-CD3/anti-CD28, 72 h, read-out: IL17 IC50
Procedure, shortened: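 Healthy-donor PBMCs (two million per well) stimulated with plate-bound anti-CD3 plus 1 μg/mL anti-CD28, with compound or vehicle, 72 h at 37 °C/5% CO2. Secreted IL-17 in supernatant measured by sandwich ELISA; IC50 derived from concentration-response.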

Row | IC50 (full length human RORγt) [nM] | Structure (SMILES) | IC50 [1] [nM]
1 | 20 | CCS(=O)(=O)c1ccc(CC(=O)Nc2cc(Cl)c(C3(c4noc(-c5ccc(Cl)cc5)n4)CC3)c(Cl)c2)cn1 [Example 72, N-(3,5-dichloro-4-(1-(5-(4-chlorophenyl)-1,2,4-oxadiazol-3-yl)cyclopropyl)phenyl)-2-(6-(ethylsulfonyl)pyridin-3-yl)acetamide] | 20.8
2 | 17.6 | CCS(=O)(=O)c1ccc(CC(=O)Nc2cc(Cl)c(C3(c4noc(-c5ccc(C#N)cc5)n4)CC3)c(Cl)c2)cn1 [Example 73, N-(3,5-dichloro-4-(1-(5-(4-cyanophenyl)-1,2,4-oxadiazol-3-yl)cyclopropyl)phenyl)-2-(6-(ethylsulfonyl)pyridin-3-yl)acetamide] | 23.4
3 | 23.9 | CCS(=O)(=O)c1ccc(CC(=O)Nc2cc(Cl)c(C3(c4nc5ccc(F)cc5o4)CC3)c(Cl)c2)cn1 [Example 74, N-(3,5-dichloro-4-(1-(6-fluorobenzo[d]oxazol-2-yl)cyclopropyl)phenyl)-2-(6-(ethylsulfonyl)pyridin-3-yl)acetamide] | 23.8
4 | 7.9 | CCS(=O)(=O)c1cnc(CC(=O)Nc2cc(Cl)c(C3(c4nc5ccc(F)cc5o4)CC3)c(Cl)c2)cn1 [Example 78, N-(3,5-dichloro-4-(1-(6-fluorobenzo[d]oxazol-2-yl)cyclopropyl)phenyl)-2-(5-(ethylsulfonyl)pyrazin-2-yl)acetamide] | 47.3
5 | 12.3 | CCS(=O)(=O)c1ccc(CC(=O)Nc2cc(Cl)c(C3(c4nnc(-c5ccc(F)cc5)o4)CC3)c(Cl)c2)cc1 [Example 79, N-(3,5-dichloro-4-(1-(5-(4-fluorophenyl)-1,3,4-oxadiazol-2-yl)cyclopropyl)phenyl)-2-(4-(ethylsulfonyl)phenyl)acetamide] | 39
